Results from PubChem BioAssay (NCI).
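Growth conditions: 96-well plates. Treatment: test compound, 48 hours, 5 concentrations. Analysis: linear interpolation between bracketing concentrations; unreached endpoints set to highest concentration. GI50: concentration for 50% inhibition of growth. The concentration for full growth arrest is given as TGI.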

Legend:
Test in all cases: NCI anticancer screen, dose series, 48 h
SK-MEL-28 melanoma = tested on: SK-MEL-28 melanoma
U251 CNS = tested on: U251 CNS
TK-10 renal = tested on: TK-10 renal
HCT-116 colon = tested on: HCT-116 colon
OVCAR-8 ovarian = tested on: OVCAR-8 ovarian
EKVX NSCLC = tested on: EKVX NSCLC
SK-OV-3 ovarian = tested on: SK-OV-3 ovarian
RXF 393 renal = tested on: RXF 393 renal
COLO 205 colon = tested on: COLO 205 colon
UACC-62 melanoma = tested on: UACC-62 melanoma

| Compound | TGI (SK-MEL-28 melanoma) | TGI (U251 CNS) | TGI (TK-10 renal) | TGI (HCT-116 colon) | TGI (OVCAR-8 ovarian) | TGI (EKVX NSCLC) | TGI (SK-OV-3 ovarian) | TGI (RXF 393 renal) | TGI (COLO 205 colon) | TGI (UACC-62 melanoma) | GI50 (SK-MEL-28 melanoma) | GI50 (U251 CNS) | GI50 (TK-10 renal) | GI50 (HCT-116 colon) | GI50 (OVCAR-8 ovarian) | GI50 (EKVX NSCLC) | GI50 (SK-OV-3 ovarian) | GI50 (RXF 393 renal) | GI50 (UACC-62 melanoma) |
| --- | --- | --- | --- | --- | --- | --- | --- | --- | --- | --- | --- | --- | --- | --- | --- | --- | --- | --- | --- |
| C=CC[N+]12CN3CN(CN(C3)C1)C2 | 55.5 µM | > 100 µM | 45.4 µM | 58.2 µM | 57.6 µM | 46.4 µM | > 100 µM | 38 µM | 65.9 µM | 80.2 µM |  |  |  |  |  |  |  |  |  |
| O=c1ccc2nc(-c3ccccc3)nn(-c3ccccn3)c-2c1 | 29.8 µM | 42.4 µM | 3.14 µM | 11.3 µM | > 100 µM | 28.2 µM | 25 µM | 3.3 µM |  | 32.8 µM | 12.3 µM | 17.2 µM | 1.71 µM | 3.33 µM | 8.87 µM | 14.8 µM | 10.3 µM | 1.79 µM | 15 µM |
| O=C1c2ccccc2C(=O)c2c(Nc3ccc4c5c(cccc35)C(=O)c3ccccc3-4)cccc21 |  | > 100 µM | > 100 µM | > 100 µM |  | > 100 µM |  | > 100 µM |  | > 100 µM |  |  |  |  |  |  |  |  |  |
| N#CCCCC[N+]12CN3CN(CN(C3)C1)C2 | > 100 µM | > 100 µM | > 100 µM | > 100 µM | > 100 µM | > 100 µM | > 100 µM | > 100 µM | > 100 µM | > 100 µM |  |  |  |  |  |  |  |  |  |
| CC(C)c1cc(CN(C)C)c(O)c(C(C)(C)C)c1 | 69.3 µM | 30 µM | > 100 µM | > 100 µM | 99.6 µM | 64.4 µM | > 100 µM | 37.2 µM | 36.7 µM | > 100 µM |  |  |  |  |  |  |  |  |  |
| O=C(CNc1cccc([N+](=O)[O-])c1)Nn1c(-c2ccccc2)nc2ccccc2c1=O | 3.04 µM | 2.88 µM | 3.95 µM | 2.09 µM | 5.31 µM | 6.86 µM | 2.04 µM | 1.08 µM | 3.17 µM | 0.608 µM |  |  |  |  |  |  |  |  |  |
| NC(=O)C(N)=O | > 100 µM | > 100 µM | > 100 µM | > 100 µM | > 100 µM | > 100 µM | > 100 µM | > 100 µM | > 100 µM | > 100 µM |  |  |  |  |  |  |  |  |  |
| Nc1nc(N)c2c(n1)NC(=O)c1c(c3ccccc3n1Cc1ccc(Cl)cc1)C2 | > 100 µM | > 100 µM | 46.9 µM | 66.9 µM | 96.6 µM | > 100 µM | 45.4 µM | 33.4 µM | 30.5 µM | > 100 µM |  |  |  |  |  |  |  |  |  |
| N#CN=C(N)NC(=O)/C=C/C=C/c1ccc(Cl)cc1 | > 100 µM | > 100 µM | > 100 µM | > 100 µM | > 100 µM |  | > 100 µM | > 100 µM | > 100 µM | > 100 µM |  |  |  |  |  |  |  |  |  |
| C#CCOc1c(C(=O)OCC)c(=O)n(C)c2ccccc12 | > 100 µM | > 100 µM | > 100 µM |  | > 100 µM | > 100 µM | > 100 µM |  | > 100 µM | > 100 µM |  |  |  |  |  |  |  |  |  |
| CC(C)(C)N1C(C(=O)c2ccccc2)C1c1ccccc1 (configuration not stated) | > 100 µM | > 100 µM | > 100 µM |  | > 100 µM | > 100 µM | > 100 µM | > 100 µM | > 100 µM | > 100 µM |  |  |  |  |  |  |  |  |  |
| CCOC(=O)C12CCC(=O)C=C1[C@@H](C)C(=O)CC2 (some centres not stated) | > 100 µM | > 100 µM | > 100 µM | > 100 µM | > 100 µM | > 100 µM | > 100 µM | > 100 µM | > 100 µM | > 100 µM |  |  |  |  |  |  |  |  |  |
| COc1ccc(C[C@H](N)C(=O)NC2C(CO)OC(n3cnc4c(N(C)C)ncnc43)C2O)cc1 (some centres not stated) | 0.481 µM | 0.131 µM |  | 0.293 µM | 0.68 µM | 1.06 µM |  | 0.73 µM | 0.302 µM | 0.411 µM |  |  |  |  |  |  |  |  |  |
| COC(=O)Nc1nc2cc(OC)c(OC)cc2c(=O)[nH]1 | > 100 µM | > 100 µM | > 100 µM | > 100 µM | > 100 µM | > 100 µM | > 100 µM |  | > 100 µM | > 100 µM |  |  |  |  |  |  |  |  |  |
